For one molecule, Kd results are on record in PMC12091848, “Structural Insights Into Galectin‐3 Recognition of a Selenoglycomimetic” (Chemmedchem, 2025).

The target in the assay is T1, Galectin-3 (Gal-3) (Homo sapiens, UniProt P17931).
T1 construct: gene LGALS3
Kind of assay: biochemical.

T1 sequence (P17931 114-250 limits assumed): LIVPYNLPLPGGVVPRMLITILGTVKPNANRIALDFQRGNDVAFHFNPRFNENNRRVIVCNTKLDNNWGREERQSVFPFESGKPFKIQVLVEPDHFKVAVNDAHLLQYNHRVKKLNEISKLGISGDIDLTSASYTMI

`OC[C@H]1O[C@@H]([Se][C@@H]2O[C@H](CO)[C@H](O)[C@H](O)[C@H]2O)[C@H](O)[C@@H](O)[C@H]1O` [SeDG, di(β‐D‐galactopyranosyl)selenide] had a Kd of 149 ± 30 µM.
